From patent publication US20150196531A1, “Methods and Compositions For Treating Sleep-Related Breathing Disorders” (Sunovion Pharmaceuticals Inc., priority 2007, published 2015)

Key:
[1] = biological target: T1, dopamine uptake, rat reuptake transporter (synaptosomes from male Wistar rat striatum) (Rattus norvegicus, UniProt P23977); assay: Dopamine functional uptake assay for rat reuptake transporter (synaptosomes); format: biochemical; conditions: for IC50: rat synaptosomes, [3H]-dopamine uptake, read-out: Inhibition of monoamine uptake, Rat DA, IC50
T1 construct: synaptosomes isolated in a 0.32 M sucrose buffer from a male Wistar rat striatum; from tissue; host or cells: male Wistar rat striatum synaptosomes
T1 sequence (P23977 whole entry): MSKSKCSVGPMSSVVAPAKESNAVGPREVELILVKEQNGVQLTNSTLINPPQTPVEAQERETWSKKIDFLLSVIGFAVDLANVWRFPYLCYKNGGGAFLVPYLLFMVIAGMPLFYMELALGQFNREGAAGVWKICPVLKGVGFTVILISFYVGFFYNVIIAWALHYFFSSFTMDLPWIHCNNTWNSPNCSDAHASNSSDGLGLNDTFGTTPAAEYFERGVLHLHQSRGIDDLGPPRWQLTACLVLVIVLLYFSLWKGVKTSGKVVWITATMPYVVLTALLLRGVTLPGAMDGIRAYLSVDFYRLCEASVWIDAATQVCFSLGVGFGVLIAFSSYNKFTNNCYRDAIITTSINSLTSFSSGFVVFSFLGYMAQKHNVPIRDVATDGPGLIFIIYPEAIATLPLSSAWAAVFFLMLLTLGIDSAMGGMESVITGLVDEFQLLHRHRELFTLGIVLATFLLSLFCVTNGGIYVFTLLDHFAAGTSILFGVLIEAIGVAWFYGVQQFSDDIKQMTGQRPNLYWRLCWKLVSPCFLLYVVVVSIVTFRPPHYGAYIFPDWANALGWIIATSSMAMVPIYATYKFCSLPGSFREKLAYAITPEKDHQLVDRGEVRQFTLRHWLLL
Protocol: (§1) The concentrations of radioligand employed in the assays were at or below the KM for the monoamine substrates with their cognate transporters. Compounds were tested at 5 to 10 different concentrations in duplicate in order to obtain full inhibition curves.
Quantification of dopamine uptake was performed using synaptosomes isolated in a 0.32 M sucrose buffer from a male Wistar rat striatum. The uptake of radiolabelled dopamine by synaptosomes (20 μg of proteins/point) was allowed by incubating them for 15 minutes at 37° C. in the presence of test compounds and [^3H]-dopamine (0.1 μCi/point). The experiment was performed in a deep well.
Synaptosomes and [^3H]-dopamine were prepared in a Krebs buffer pH 7.4 containing 25 mM NaHCO3, 11 mM glucose and 50 μM ascorbic acid. This incubation buffer was oxygenated for 5 minutes before incubation. Basal control was incubated for 15 minutes at 4° C. in order to avoid any uptake. Following this incubation, the uptake was stopped by filtration through a unifilter 96-wells GFB Packard plate washed with Krebs buffer containing 25 mM NaHCO3in order to eliminate free [^3H]-dopamine. The radioactivity associated to the synaptosomes retained onto the unifilter corresponding to the uptake was then measured with a microplate scintillation counter (Topcount, Packard) using a scintillation fluid.

[2] = biological target: norepinephrine uptake, rat reuptake transporter (synaptosomes from male Wistar rat hypothalamus) (Rattus norvegicus, UniProt Q63380); assay: Norepinephrine functional uptake assay for rat reuptake transporter (synaptosomes); format: biochemical; conditions: [3H]-norepinephrine uptake, read-out: Inhibition of monoamine uptake, Rat NE, IC50
Chain of norepinephrine uptake, rat reuptake transporter (synaptosomes from male Wistar rat hypothalamus) (Q63380 1-617): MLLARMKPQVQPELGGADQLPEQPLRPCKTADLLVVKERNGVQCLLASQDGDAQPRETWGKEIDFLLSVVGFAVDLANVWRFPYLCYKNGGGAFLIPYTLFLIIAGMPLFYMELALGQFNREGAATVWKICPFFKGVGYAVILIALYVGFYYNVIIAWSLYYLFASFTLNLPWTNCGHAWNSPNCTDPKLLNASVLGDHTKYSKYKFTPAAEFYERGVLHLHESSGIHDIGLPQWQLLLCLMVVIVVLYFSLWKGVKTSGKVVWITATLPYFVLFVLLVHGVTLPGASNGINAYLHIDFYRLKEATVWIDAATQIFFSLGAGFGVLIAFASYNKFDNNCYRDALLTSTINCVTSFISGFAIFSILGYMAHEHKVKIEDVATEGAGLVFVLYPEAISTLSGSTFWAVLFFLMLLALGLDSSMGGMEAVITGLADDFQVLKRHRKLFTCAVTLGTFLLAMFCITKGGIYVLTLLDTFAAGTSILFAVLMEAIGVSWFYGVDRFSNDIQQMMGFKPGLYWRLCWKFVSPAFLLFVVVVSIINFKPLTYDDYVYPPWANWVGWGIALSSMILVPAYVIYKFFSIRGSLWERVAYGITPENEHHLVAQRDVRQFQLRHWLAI
Protocol: as §1
Quantification of norepinephrine uptake was performed using synaptosomes isolated in a 0.32 M sucrose buffer from a male Wistar rat hypothalamus. The uptake of radiolabelled norepinephrine by synaptosomes (100 μg of proteins/point) was allowed by incubating them for 20 minutes at 37° C. in presence of test compounds and [^3H]-norepinephrine (0.1 μCi/point). The experiment was performed in a deep well.
Synaptosomes and [^3H]-norepinephrine were prepared in a Krebs buffer pH 7.4 containing 25 mM NaHCO3, 11 mM glucose and 50 μM ascorbic acid. This incubation buffer was oxygenated for 5 minutes before incubation. Basal control was incubated for 20 minutes at 4° C. in order to avoid any uptake. Following this incubation, the uptake was stopped by filtration through a unifilter 96-wells GFB. Packard plate washed with Krebs buffer containing 25 mM NaHCO3 in order to eliminate the free [^3H]-norepinephrine. The radioactivity associated to the synaptosomes retained onto the unifilter corresponding to the uptake was then measured with a microplate scintillation counter (Topcount, Packard) using a scintillation fluid.

[3] = biological target: 5-HT uptake, rat reuptake transporter (synaptosomes from male Wistar rat cortex) (Rattus norvegicus, UniProt P31652); conditions: at a 10 μM concentration
Chain of 5-HT uptake, rat reuptake transporter (synaptosomes from male Wistar rat cortex) (P31652 whole entry): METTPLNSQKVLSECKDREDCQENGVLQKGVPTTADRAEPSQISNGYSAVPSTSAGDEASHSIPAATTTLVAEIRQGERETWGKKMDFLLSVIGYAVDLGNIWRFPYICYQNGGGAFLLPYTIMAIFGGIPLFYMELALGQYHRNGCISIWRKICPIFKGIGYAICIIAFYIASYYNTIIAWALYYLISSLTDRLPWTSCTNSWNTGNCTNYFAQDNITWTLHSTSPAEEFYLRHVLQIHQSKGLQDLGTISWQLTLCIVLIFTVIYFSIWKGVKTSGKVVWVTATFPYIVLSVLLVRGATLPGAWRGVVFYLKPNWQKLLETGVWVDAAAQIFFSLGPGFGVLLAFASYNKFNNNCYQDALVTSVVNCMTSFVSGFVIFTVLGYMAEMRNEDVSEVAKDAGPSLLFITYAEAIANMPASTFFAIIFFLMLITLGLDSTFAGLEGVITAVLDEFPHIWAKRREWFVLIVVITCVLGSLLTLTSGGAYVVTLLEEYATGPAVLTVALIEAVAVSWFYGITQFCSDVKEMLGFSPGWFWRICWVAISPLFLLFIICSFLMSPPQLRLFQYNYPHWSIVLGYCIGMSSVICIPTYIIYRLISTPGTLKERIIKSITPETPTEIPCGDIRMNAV
Protocol: as §1
Quantification of 5HT uptake was performed using synaptosomes isolated in a 0.32M sucrose buffer from a male Wistar rat cortex. The uptake of radiolabelled 5-HT by synaptosomes (100 μg of proteins/point) was allowed by incubating them in a well for 15 min at 37° C. in presence of test compounds and [^3H]5-hydroxytryptamine (0.1 μCi/point).
Synaptosomes and [^3H]5-hydroxytryptamine were prepared in a Krebs buffer pH 7.4 containing 25 mM NaHCO3, 11 mM mM glucose and 50 μM ascorbic acid. This incubation buffer was oxygenated during 5 minutes before incubation. Basal control was incubated for 15 minutes at 4° C. in order to avoid any uptake. […] The radioactivity associated to the synaptosomes retained on the unifilter corresponding to the uptake was then measured with a microplate scintillation counter (Topcount, Packard) using a scintillation fluid. Nonspecific binding was measured in the presence of an excess of cold, unlabeled ligand. […]

[4] = biological target: recombinant human dopamine transporter expressed in CHO-K1 cells (Homo sapiens, UniProt Q01959)
Chain of recombinant human dopamine transporter expressed in CHO-K1 cells (Q01959 whole entry): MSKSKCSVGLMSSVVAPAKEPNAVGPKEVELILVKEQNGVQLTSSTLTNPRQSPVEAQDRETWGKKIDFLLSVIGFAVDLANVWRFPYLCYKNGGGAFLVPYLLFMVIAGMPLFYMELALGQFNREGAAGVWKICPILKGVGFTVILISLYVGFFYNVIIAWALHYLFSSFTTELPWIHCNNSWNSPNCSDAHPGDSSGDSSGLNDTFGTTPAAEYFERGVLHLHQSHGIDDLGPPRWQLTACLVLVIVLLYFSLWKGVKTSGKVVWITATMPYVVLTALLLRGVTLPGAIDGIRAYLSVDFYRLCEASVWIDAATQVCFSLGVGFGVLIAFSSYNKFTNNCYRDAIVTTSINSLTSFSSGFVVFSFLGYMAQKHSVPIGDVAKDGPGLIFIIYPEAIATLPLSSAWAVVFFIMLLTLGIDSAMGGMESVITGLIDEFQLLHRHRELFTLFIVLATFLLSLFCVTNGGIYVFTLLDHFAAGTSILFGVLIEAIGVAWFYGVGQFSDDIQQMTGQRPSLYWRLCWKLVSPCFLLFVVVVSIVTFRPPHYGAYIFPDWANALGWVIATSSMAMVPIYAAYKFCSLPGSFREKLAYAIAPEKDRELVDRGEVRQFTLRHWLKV
Protocol: as §1
Test compound and/or vehicle was preincubated with cells (4×10^5/ml) in modified Tris-HEPES buffer pH 7.1 for 20 minutes at 25° C. and 50 nM [^3H]Dopamine was then added for an additional 10 minute incubation period. A lysate was obtained from solubilized cells and the amount of tritium in the lysate was measured using a liquid scintillation counter to determine [^3H]Dopamine uptake. Reduction of [^3H]Dopamine uptake by 50 percent or more (≧50%) relative to 10 μM nomifensine indicates significant inhibitory activity.

Row | SMILES | Inhibition of functional reuptake, Rat DA (IC50 not given) ([1]; at a 10 μM concentration) | IC50 [2] [µM] | Inhibition of functional reuptake, Rat 5-HT (IC50 not given) [3] | Inhibition of functional reuptake, Human DA (IC50 not given) [4] | IC50 [1] [µM]
1 | CN(C)CC(c1ccc(O)cc1)C1(O)CCCCC1 (single isomer, unassigned; (+)) [(+)-O-desmethylvenlafaxine] | — (— indicates less than 50% inhibition of functional reuptake at a 10 μM concentration.) | 1.7 | — (— indicates less than 50% inhibition of functional reuptake at a 10 μM concentration.) | — (key: — indicates less than 50% inhibition of functional reuptake at a 10 μM concentration.) | –
2 | CN(C)CC(c1ccc(O)cc1)C1(O)CCCCC1 (single isomer, unassigned; (-)) [(−)-O-desmethylvenlafaxine] | – | 0.43 | – | – | 5.7
3 | CN(C)CC(c1ccc(O)cc1)C1(O)CCCCC1 (racemic) [Racemic O-desmethylvenlafaxine, O-desmethylvenlafaxine] | – | 1.5 | – | — (key: — indicates less than 50% inhibition of functional reuptake at a 10 μM concentration.) | 7.5
